One assay deals with ErbB2 WT (Homo sapiens (Human), UniProt P04626). Kind of assay: ErbB Enzyme Assay (HTRF KinEASE-TK), Assay 2. Type of assay: biochemical. (Time-resolved FRET reads energy transfer from a long-lived donor to a nearby acceptor.)
A further assay has as its target EGFR (Homo sapiens (Human), UniProt P00533). Kind of assay: ErbB Enzyme Assay (HTRF KinEASE-TK), Assay 3. It counts as biochemical.
The next assay concerns the target EGFR wild type (EGFR WT) (Homo sapiens (Human), UniProt P00533). Kind of assay: Cellular Phosphorylation Assay, Assay 5 (EGF-stimulated EGFR phosphorylation, NIH 3T3 cells). Type of assay: cell-based.
Assay [1] has as its target ErbB2 with Exon 20 YVMA insertion (HER2-YVMA) (Homo sapiens (Human), UniProt P04626, INS775YVMA). Kind of assay: Cellular Phosphorylation Assay, Assay 4 (constitutive ErbB2 phosphorylation, NIH 3T3 cells). It counts as cell-based.
[2] abbreviates: EGF-stimulated EGFR WT phosphorylation.
Where [3] appears, read: cellular EGFR WT phosphorylation, EGF-stimulated.
[4] abbreviates: cellular ErbB2 YVMA phosphorylation.

Chain of ErbB2 with Exon 20 YVMA insertion (HER2-YVMA) (P04626 other isoform, or with tags, fused parts or gaps ins YVMA behind 775): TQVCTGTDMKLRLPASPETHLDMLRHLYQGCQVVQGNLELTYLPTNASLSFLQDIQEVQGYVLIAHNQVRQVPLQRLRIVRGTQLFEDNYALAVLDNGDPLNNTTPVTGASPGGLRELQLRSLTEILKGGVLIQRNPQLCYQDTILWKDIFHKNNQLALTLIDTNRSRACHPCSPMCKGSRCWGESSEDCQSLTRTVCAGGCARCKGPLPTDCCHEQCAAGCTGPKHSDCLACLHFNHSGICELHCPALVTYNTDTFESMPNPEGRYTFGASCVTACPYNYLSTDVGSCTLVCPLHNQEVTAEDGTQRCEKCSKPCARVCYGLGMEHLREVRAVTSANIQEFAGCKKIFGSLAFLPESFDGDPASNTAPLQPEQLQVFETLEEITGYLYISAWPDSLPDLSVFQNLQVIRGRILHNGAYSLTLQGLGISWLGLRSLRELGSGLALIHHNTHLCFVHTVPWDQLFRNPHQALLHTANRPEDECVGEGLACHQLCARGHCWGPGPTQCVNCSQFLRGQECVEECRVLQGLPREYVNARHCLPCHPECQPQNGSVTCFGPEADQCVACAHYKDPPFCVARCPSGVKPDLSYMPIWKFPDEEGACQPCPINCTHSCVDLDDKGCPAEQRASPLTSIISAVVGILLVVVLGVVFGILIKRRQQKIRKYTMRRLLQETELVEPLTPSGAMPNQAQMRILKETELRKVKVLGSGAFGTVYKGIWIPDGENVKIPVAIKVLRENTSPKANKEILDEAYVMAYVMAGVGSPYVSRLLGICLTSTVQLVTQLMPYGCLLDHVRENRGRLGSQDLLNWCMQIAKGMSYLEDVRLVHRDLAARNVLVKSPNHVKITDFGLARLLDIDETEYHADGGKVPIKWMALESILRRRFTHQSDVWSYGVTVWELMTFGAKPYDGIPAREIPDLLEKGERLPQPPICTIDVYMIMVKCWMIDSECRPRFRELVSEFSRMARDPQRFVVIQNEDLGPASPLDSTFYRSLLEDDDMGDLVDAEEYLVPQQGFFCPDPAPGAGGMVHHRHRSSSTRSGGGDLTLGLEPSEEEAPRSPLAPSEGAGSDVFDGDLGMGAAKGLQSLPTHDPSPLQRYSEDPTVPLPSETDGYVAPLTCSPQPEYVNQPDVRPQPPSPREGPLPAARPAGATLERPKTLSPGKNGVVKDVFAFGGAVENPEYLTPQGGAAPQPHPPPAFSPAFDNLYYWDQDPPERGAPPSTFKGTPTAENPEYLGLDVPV
Chain of ErbB2 WT (P04626 23-1255): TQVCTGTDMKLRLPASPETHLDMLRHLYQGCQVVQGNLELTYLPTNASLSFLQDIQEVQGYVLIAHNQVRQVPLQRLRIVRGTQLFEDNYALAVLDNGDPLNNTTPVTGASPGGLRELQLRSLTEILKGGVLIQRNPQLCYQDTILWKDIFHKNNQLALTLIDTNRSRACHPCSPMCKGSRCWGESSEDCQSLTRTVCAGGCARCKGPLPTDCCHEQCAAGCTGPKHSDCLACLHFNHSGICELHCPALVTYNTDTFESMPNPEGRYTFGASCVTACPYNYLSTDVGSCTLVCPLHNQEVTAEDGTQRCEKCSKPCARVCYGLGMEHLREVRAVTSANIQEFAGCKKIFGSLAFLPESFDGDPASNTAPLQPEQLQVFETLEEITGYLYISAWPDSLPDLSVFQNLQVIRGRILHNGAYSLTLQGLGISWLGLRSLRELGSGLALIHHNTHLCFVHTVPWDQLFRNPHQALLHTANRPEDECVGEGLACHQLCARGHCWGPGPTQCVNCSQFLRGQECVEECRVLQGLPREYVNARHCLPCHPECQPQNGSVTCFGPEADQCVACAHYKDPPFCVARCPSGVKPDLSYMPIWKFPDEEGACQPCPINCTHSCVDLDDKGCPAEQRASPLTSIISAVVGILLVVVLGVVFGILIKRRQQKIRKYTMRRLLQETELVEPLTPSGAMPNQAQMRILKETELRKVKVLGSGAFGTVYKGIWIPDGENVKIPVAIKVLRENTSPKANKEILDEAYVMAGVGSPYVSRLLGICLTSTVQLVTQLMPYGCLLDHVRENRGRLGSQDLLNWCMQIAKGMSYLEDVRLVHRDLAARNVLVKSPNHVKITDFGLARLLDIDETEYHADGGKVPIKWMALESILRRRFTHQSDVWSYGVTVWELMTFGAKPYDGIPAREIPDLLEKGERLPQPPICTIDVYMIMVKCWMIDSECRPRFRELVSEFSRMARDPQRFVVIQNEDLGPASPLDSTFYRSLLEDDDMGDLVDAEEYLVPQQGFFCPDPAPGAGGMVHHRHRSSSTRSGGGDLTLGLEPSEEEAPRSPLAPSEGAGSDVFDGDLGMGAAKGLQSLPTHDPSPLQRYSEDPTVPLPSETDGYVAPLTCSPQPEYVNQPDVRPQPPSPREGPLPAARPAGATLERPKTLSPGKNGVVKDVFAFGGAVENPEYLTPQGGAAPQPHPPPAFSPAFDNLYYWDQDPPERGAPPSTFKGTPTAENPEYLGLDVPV
Chain of EGFR wild type (EGFR WT) (P00533 25-1210): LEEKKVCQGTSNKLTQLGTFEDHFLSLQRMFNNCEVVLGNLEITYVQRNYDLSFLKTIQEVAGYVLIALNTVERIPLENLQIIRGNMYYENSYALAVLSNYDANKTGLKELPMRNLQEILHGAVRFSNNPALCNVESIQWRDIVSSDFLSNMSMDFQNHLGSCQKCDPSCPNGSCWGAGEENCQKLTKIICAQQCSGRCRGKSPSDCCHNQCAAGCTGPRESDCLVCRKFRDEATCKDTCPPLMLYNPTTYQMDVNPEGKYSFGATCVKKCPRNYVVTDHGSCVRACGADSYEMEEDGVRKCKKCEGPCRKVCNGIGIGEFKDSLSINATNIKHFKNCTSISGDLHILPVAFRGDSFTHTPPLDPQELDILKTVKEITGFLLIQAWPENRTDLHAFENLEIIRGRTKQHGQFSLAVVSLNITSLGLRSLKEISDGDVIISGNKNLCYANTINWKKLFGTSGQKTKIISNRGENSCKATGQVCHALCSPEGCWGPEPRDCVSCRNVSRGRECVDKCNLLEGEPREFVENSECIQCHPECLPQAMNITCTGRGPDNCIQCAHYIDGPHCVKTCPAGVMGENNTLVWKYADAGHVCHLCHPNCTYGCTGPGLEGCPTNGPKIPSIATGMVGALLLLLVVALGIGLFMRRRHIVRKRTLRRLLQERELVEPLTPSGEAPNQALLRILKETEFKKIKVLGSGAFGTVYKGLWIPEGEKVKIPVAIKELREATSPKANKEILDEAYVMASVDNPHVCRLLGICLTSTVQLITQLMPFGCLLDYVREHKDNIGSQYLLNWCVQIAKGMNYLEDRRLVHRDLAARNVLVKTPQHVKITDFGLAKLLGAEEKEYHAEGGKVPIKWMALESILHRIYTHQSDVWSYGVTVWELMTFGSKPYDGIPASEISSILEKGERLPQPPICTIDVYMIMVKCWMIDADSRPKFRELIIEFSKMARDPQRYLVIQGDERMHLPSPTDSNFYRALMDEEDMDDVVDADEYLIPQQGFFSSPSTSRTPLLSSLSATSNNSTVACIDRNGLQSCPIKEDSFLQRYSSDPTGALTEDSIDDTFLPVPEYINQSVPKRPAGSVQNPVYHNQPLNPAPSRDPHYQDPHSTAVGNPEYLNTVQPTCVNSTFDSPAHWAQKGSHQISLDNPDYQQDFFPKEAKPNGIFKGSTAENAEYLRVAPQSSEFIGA
Chain of EGFR (P00533 25-1210): as above

In general, IC50 refers to the concentration that inhibits the measured activity by half. As to `CC#CC(=O)N1CCC12CN(c1ccc3ncnc(Nc4cc(C)c(Oc5ccn6ncnc6c5)cc4F)c3n1)C2` [Example 188, 1-(6-(4-((4-([1,2,4]triazolo[1,5-a]pyridin-7-yloxy)-2-fluoro-5-methylphenyl)amino)pyrido[3,2-d]pyrimidin-6-yl)-1,6-diazaspiro[3.3]heptan-1-yl)but-2-yn-1-one], the IC50 on ErbB2 WT (ErbB2 WT enzyme) is 1450 nM; against EGFR (EGFR enzyme) it was at least 10000 nM; against EGFR wild type (EGFR WT) (setting [2]), at least 5000 nM; in assay [1] (ErbB2 YVMA phosphorylation), 2020 nM.

For `C=CC(=O)N1CCN(c2ccc3ncnc(Nc4ccc(Oc5ccn6ncnc6c5)c(C)c4F)c3n2)C[C@@H]1C` [Example 88, (S)-1-(4-(4-((4-([1,2,4]triazolo[1,5-a]pyridin-7-yloxy)-2-fluoro-3-methylphenyl)amino)pyrido[3,2-d]pyrimidin-6-yl)-2-methylpiperazin-1-yl)prop-2-en-1-one], the IC50 against ErbB2 WT (ErbB2 WT enzyme) was 81.3 nM; on EGFR (EGFR enzyme), 2950 nM; against EGFR wild type (EGFR WT) (setting [2]), 1850 nM; in assay [1] (ErbB2 YVMA phosphorylation) it was 17.8 nM.

For the compound `CC#CC(=O)N1CCC[C@@H](c2ccc3ncnc(Nc4ccc(Oc5ccn6ncnc6c5)c(C)c4F)c3n2)CC1` (single isomer, unassigned) [Example 211], the IC50 against ErbB2 WT (ErbB2 WT enzyme) is 65.4 nM; against EGFR (EGFR enzyme), 5400 nM; on EGFR wild type (EGFR WT) (setting [2]) it was at least 5000 nM; in assay [1] (ErbB2 YVMA phosphorylation) it was 317 nM.

For the compound `C=CC(=O)N1CCN(c2ccc3ncnc(Nc4ccc(Oc5ccn6ncnc6c5)c(C)c4F)c3n2)C[C@H]1C1CC1` [Example 283], the 50% inhibitory concentration (IC50) at ErbB2 WT (ErbB2 WT enzyme assay) stood at 28.2 nM; at EGFR (EGFR enzyme assay), 4550 nM; at EGFR wild type (EGFR WT) (setting [3]) it was 1380 nM; in assay [1] (setting [4]) it was 33.6 nM.

On to `C=CC(=O)N1C2CC1CN(c1ccc3ncnc(Nc4cc(Cl)c(Oc5ccn6ncnc6c5)cc4F)c3n1)C2` [Example 44, 1-(3-(4-((4-([1,2,4]triazolo[1,5-a]pyridin-7-yloxy)-5-chloro-2-fluorophenyl)amino)pyrido[3,2-d]pyrimidin-6-yl)-3,6-diazabicyclo[3.1.1]heptan-6-yl)prop-2-en-1-one], for which the IC50 on ErbB2 WT (ErbB2 WT enzyme) was 81.5 nM; against EGFR (EGFR enzyme) it was at least 10000 nM; against EGFR wild type (EGFR WT) (setting [2]), at least 5000 nM; in assay [1] (ErbB2 YVMA phosphorylation), 55.7 nM.

For the compound `C=CC(=O)N1[C@@H]2CCC[C@H]1[C@@H](c1ccc3ncnc(Nc4cc(C)c(Oc5ccn6ncnc6c5)cc4F)c3n1)C2` [Example 414], the IC50 is 30.1 nM against ErbB2 WT (ErbB2 WT enzyme assay), 866 nM at EGFR (EGFR enzyme assay), at least 5000 nM at EGFR wild type (EGFR WT) (setting [3]) and 57.6 nM in assay [1] (setting [4]).

For `C=CC(=O)N1C[C@H]2CC[C@@H]1[C@H](c1ccc3ncnc(Nc4ccc(Oc5ccn6ncnc6c5)c(C)c4F)c3n1)C2` [Example 397], the IC50 on ErbB2 WT (ErbB2 WT enzyme assay) is 9.7 nM; at EGFR (EGFR enzyme assay), 1120 nM; against EGFR wild type (EGFR WT) (setting [3]) it was at least 5000 nM; in assay [1] (setting [4]), 49.2 nM.

As for `C=CC(=O)N1C2CCC1CC(c1ccc3ncnc(Nc4ccc(Oc5ccc6c(c5)ncn6C)c(C)c4)c3n1)C2` (stereo not shown) [Example 122, 1-(3-(4-((3-methyl-4-((1-methyl-1H-benzo[d]imidazol-5-yl)oxy)phenyl)amino)pyrido[3,2-d]pyrimidin-6-yl)-8-azabicyclo[3.2.1]octan-8-yl)prop-2-en-1-one], the IC50 on ErbB2 WT (ErbB2 WT enzyme) was 9.3 nM; on EGFR (EGFR enzyme), 3880 nM; against EGFR wild type (EGFR WT) (setting [2]), at least 5000 nM; in assay [1] (ErbB2 YVMA phosphorylation) it was 13 nM.

In the case of `C=CC(=O)N1CC[C@@H]2[C@H](c3ccc4ncnc(Nc5ccc(Oc6ccc7c(c6)ncn7C)c(C)c5F)c4n3)CC[C@@H]21` (racemic) [Example 142, rac-1-((3aR,4R,6aS)-4-(4-((2-fluoro-3-methyl-4-((1-methyl-1H-benzo[d]imidazol-5-yl)oxy)phenyl)amino)pyrido[3,2-d]pyrimidin-6-yl)hexahydrocyclopenta[b]pyrrol-1(2H)-yl)prop-2-en-1-one], the IC50 is 49.9 nM at ErbB2 WT (ErbB2 WT enzyme), at least 10000 nM against EGFR (EGFR enzyme), at least 5000 nM at EGFR wild type (EGFR WT) (setting [2]) and 79.5 nM in assay [1] (ErbB2 YVMA phosphorylation).

`C=CC(=O)N1C[C@H]2CC[C@@H](C1)[C@@H]2c1ccc2ncnc(Nc3ccc(Oc4ccn5ncnc5c4)c(C)c3F)c2n1` [Example 223, 1-((1R,5S,8r)-8-(4-((4-([1,2,4]triazolo[1,5-a]pyridin-7-yloxy)-2-fluoro-3-methylphenyl)amino)pyrido[3,2-d]pyrimidin-6-yl)-3-azabicyclo[3.2.1]octan-3-yl)prop-2-en-1-one]: the IC50 on ErbB2 WT (ErbB2 WT enzyme) is 48.9 nM; against EGFR (EGFR enzyme) it was 1960 nM; against EGFR wild type (EGFR WT) (setting [2]) it was at least 5000 nM; in assay [1] (ErbB2 YVMA phosphorylation) it was 145 nM.

Regarding `C=C(F)C(=O)N1[C@@H]2CC[C@H]1C[C@@H](c1ccc3ncnc(Nc4cc(C)c(Oc5ccn6ncnc6c5)cc4F)c3n1)C2` [Example 207, 1-((1R,3r,5S)-3-(4-((4-([1,2,4]triazolo[1,5-a]pyridin-7-yloxy)-2-fluoro-5-methylphenyl)amino)pyrido[3,2-d]pyrimidin-6-yl)-8-azabicyclo[3.2.1]octan-8-yl)-2-fluoroprop-2-en-1-one], the IC50 was 150 nM on ErbB2 WT (ErbB2 WT enzyme), at least 10000 nM on EGFR (EGFR enzyme), at least 5000 nM on EGFR wild type (EGFR WT) (setting [2]) and 685 nM in assay [1] (ErbB2 YVMA phosphorylation).

Consider `C=CC(=O)N1CC[C@@H]2C[C@H]1CN2c1ccc2ncnc(Nc3cc(Cl)c(Oc4cnc5c(c4)ncn5C)cc3F)c2n1` [Example 456], for which the IC50 is 711 nM against ErbB2 WT (ErbB2 WT enzyme assay), at least 10000 nM at EGFR (EGFR enzyme assay), at least 5000 nM at EGFR wild type (EGFR WT) (setting [3]) and 253 nM in assay [1] (setting [4]).

As to `C=CC(=O)N1CCN(c2ccc3ncnc(Nc4ccc(Oc5ccn6ncnc6c5)c(Cl)c4F)c3n2)C[C@H]1C(F)(F)F` [Example 85, (S)-1-(4-(4-((4-([1,2,4]triazolo[1,5-a]pyridin-7-yloxy)-3-chloro-2-fluorophenyl)amino)pyrido[3,2-d]pyrimidin-6-yl)-2-(trifluoromethyl)piperazin-1-yl)prop-2-en-1-one], the IC50 stood at 3.1 nM on ErbB2 WT (ErbB2 WT enzyme), 205 nM on EGFR (EGFR enzyme), 446 nM at EGFR wild type (EGFR WT) (setting [2]) and 25 nM in assay [1] (ErbB2 YVMA phosphorylation).

On to `C=CC(=O)N1CCCC(c2ccc3ncnc(Nc4ccc(Oc5ccn6ncnc6c5)c(C)c4F)c3n2)CC1` (stereo not shown) [Example 189, 1-(4-(4-((4-([1,2,4]triazolo[1,5-a]pyridin-7-yloxy)-2-fluoro-3-methylphenyl)amino)pyrido[3,2-d]pyrimidin-6-yl)azepan-1-yl)prop-2-en-1-one], for which the IC50 against ErbB2 WT (ErbB2 WT enzyme) worked out at 11.1 nM; on EGFR (EGFR enzyme) it was 1280 nM; against EGFR wild type (EGFR WT) (setting [2]) it was 1790 nM; in assay [1] (ErbB2 YVMA phosphorylation), 41.2 nM.

For the compound `C=CC(=O)N1C[C@H]2CC[C@H](c3ccc4ncnc(Nc5ccc(Oc6ccn7ncnc7c6)c(C)c5F)c4n3)[C@H]2C1` [Example 411], the IC50 against ErbB2 WT (ErbB2 WT enzyme assay) is 44.9 nM; against EGFR (EGFR enzyme assay), 598 nM; at EGFR wild type (EGFR WT) (setting [3]), 1440 nM; in assay [1] (setting [4]), 35.2 nM.

As to `C=CC(=O)N1[C@@H](C)CC(c2ccc3ncnc(Nc4ccc(Oc5ccc6c(c5)ncn6C)c(C)c4F)c3n2)C[C@@H]1C` (mixture of isomers) [Example 313], the IC50 on ErbB2 WT (ErbB2 WT enzyme assay) was 79.7 nM; at EGFR (EGFR enzyme assay), at least 10000 nM; against EGFR wild type (EGFR WT) (setting [3]), at least 5000 nM; in assay [1] (setting [4]), 51.9 nM.

For `C=CC(=O)N1CCCCC(c2ccc3ncnc(Nc4ccc(Oc5ccc6c(c5)ncn6C)c(C)c4)c3n2)C1` (stereo not shown) [Example 126, 1-(3-(4-((3-methyl-4-((1-methyl-1H-benzo[d]imidazol-5-yl)oxy)phenyl)amino)pyrido[3,2-d]pyrimidin-6-yl)azepan-1-yl)prop-2-en-1-one], the IC50 against ErbB2 WT (ErbB2 WT enzyme) came out at 12.3 nM; against EGFR (EGFR enzyme), 1260 nM; against EGFR wild type (EGFR WT) (setting [2]), 1770 nM; in assay [1] (ErbB2 YVMA phosphorylation), 12.2 nM.

As for `C=CC(=O)N1C[C@H]2C[C@H](c3ccc4ncnc(Nc5ccc(Oc6ccn7ncnc7c6)c(C)c5F)c4n3)C[C@H]2C1` [Example 200, 1-((3aR,5s,6aS)-5-(4-((4-([1,2,4]triazolo[1,5-a]pyridin-7-yloxy)-2-fluoro-3-methylphenyl)amino)pyrido[3,2-d]pyrimidin-6-yl)hexahydrocyclopenta[c]pyrrol-2(1H)-yl)prop-2-en-1-one], the IC50 at ErbB2 WT (ErbB2 WT enzyme) is 16.2 nM; at EGFR (EGFR enzyme), 2780 nM; on EGFR wild type (EGFR WT) (setting [2]), at least 5000 nM; in assay [1] (ErbB2 YVMA phosphorylation), 83.5 nM.

As to `C=CC(=O)N1C[C@@H]2C[C@H]1CN2c1ccc2ncnc(Nc3ccc(Oc4ccn5ncnc5c4)c(C)c3F)c2n1` [Example 95, 1-((1S,4S)-5-(4-((4-([1,2,4]triazolo[1,5-a]pyridin-7-yloxy)-2-fluoro-3-methylphenyl)amino)pyrido[3,2-d]pyrimidin-6-yl)-2,5-diazabicyclo[2.2.1]heptan-2-yl)prop-2-en-1-one], the IC50 on ErbB2 WT (ErbB2 WT enzyme) stood at 38 nM; on EGFR (EGFR enzyme), 378 nM; against EGFR wild type (EGFR WT) (setting [2]) it was 49.5 nM; in assay [1] (ErbB2 YVMA phosphorylation), 5 nM.

Take `C=CC(=O)N1CCN(c2ccc3ncnc(Nc4ccc(Oc5ccn6ncnc6c5)c(Cl)c4F)c3n2)C[C@H]1C(C)(C)C` [Example 311]: the IC50 was 80.3 nM at ErbB2 WT (ErbB2 WT enzyme assay), at least 10000 nM at EGFR (EGFR enzyme assay), 562 nM at EGFR wild type (EGFR WT) (setting [3]) and 16.2 nM in assay [1] (setting [4]).

On to `C=CC(=O)N1CC2(CCN(c3ccc4ncnc(Nc5ccc(Oc6ccn7ncnc7c6)c(C)c5F)c4n3)C2)C1` [Example 307], for which the IC50 at ErbB2 WT (ErbB2 WT enzyme assay) is 104 nM; against EGFR (EGFR enzyme assay), at least 10000 nM; on EGFR wild type (EGFR WT) (setting [3]) it was at least 5000 nM; in assay [1] (setting [4]), 36.6 nM.

Turning to `C=CC(=O)N1CCN(c2ccc3ncnc(Nc4cc(Cl)c(Oc5ccn6ncnc6c5)cc4F)c3n2)CC1C(F)F` (stereo not shown) [Example 365], the IC50 came to 17.6 nM on ErbB2 WT (ErbB2 WT enzyme assay), 465 nM on EGFR (EGFR enzyme assay), 238 nM at EGFR wild type (EGFR WT) (setting [3]) and 16.5 nM in assay [1] (setting [4]).

The values are drawn from patent US12447153B2, “HER2 mutation inhibitors” (Array BioPharma Inc., priority 2021, dated 2025).
